Experimental data as given in US7588892B2, “Reagent sets and gene signatures for renal tubule injury” (Entelos, Inc., priority 2004, dated 2009).

System: renal tubules
Test: 28-day repeat dose study of known nephrotoxicants, kidney histopathology on day 5 and day 28
Type: in vivo, rat
Details: after 4 weeks of dosing, kidney histopathology
Experimental: 28-day repeat dose studies were conducted on known nephrotoxicants. Doses were chosen that would not cause histological or clinical evidence of renal tubular injury after 5 days of dosing, but would cause histological evidence of tubular injury after 28 days of dosing. Animals were assigned to groups such that mean body weights were within 10% of the mean vehicle control group. Test compounds were administered either orally (10 ml of corn oil/kg body weight) or by intra-peritoneal injection (5 ml of saline/kg body weight). Animals were dosed once daily starting on day 0, and necropsied 24 hrs after the last dose following an overnight fast on day 5 (n=5) and day 28 (n=10). An equivalent number of time- and vehicle-matched control rats were treated concurrently.
To derive a signature predictive of renal tubular injury, it is necessary to first define both nephrotoxic and non-nephrotoxic treatments from short-term studies devoid of tissue injury that can be used to model the early transcriptional effects that will be predictive of late-onset toxicity.
Doses were chosen that would not cause histological or clinical evidence of renal tubular injury after 5 days of dosing, but would cause histological evidence of tubular injury after 28 days of dosing.
Male Sprague-Dawley (Crl:CD®(SD)(IGS)BR) rats (Charles River Laboratories, Portage, Mich.), weight matched, 7 to 8 weeks of age, were housed individually in hanging, stainless steel, wire-bottom cages in a temperature (66-77° F.), light (12-hour dark/light cycle) and humidity (30-70%) controlled room. […] Housing and treatment of the animals were in accordance with regulations outlined in the USDA Animal Welfare Act (9 CFR Parts 1, 2 and 3).
All animals were monitored daily for clinical observations approximately 1 hr after dosing. […] Paired organs were weighed together. Body weights were recorded pre-test and daily thereafter for reference database (i.e., DrugMatrix™) studies, and on days 0, 3, 5, 7, 14 and 28 for the sub-chronic studies. Terminal body weights were measured at necropsy and used to calculate relative organ weights and percent body weight gain relative to day 0.
The right kidney was preserved in 10% buffered formalin for tissue fixation and subsequently embedded in paraffin, sectioned and stained with hematoxylin and eosin. Sections (5 μm thick) were examined under light microscope by Board Certified Pathologists for histopathological lesions. The left kidney was snap frozen in liquid nitrogen for subsequent RNA extraction.

Row | Compound | incidence of karyomegaly
1 | CC(=O)[O-].CC(=O)[O-].[Pb+2] [LEAD (II) ACETATE] | high incidence
2 | [Cl-].[Cl-].[Co+2] [COBALT (II) CHLORIDE] | high incidence
3 | N.N.O=C([O-])C1(C(=O)[O-])CCC1.[Pt+2] [CARBOPLATIN] | high incidence
4 | N.N.[Cl][Pt][Cl] [CISPLATIN] | high incidence

Same assay, conditions: day 5, kidney histopathology

Row | Compound | mild tubular dilation and proteinaceous casts, animals affected
5 | CC(=O)[O-].CC(=O)[O-].[Pb+2] [LEAD (II) ACETATE] | one

Same assay, conditions: day 5, kidney histopathology, n=5

Row | Compound | incidence of karyomegaly [rats]
6 | N.N.O=C([O-])C1(C(=O)[O-])CCC1.[Pt+2] [CARBOPLATIN] | 5
7 | N.N.[Cl][Pt][Cl] [CISPLATIN] | 3

Same assay, conditions: day 28, kidney histopathology

Row | Compound | evidence of tubular injury
8 | CCCCCCCCCc1ccc(O)cc1 [4-NONYLPHENOL] | clear evidence of tubular injury
9 | O=[N+]([O-])c1cc([As](=O)(O)O)ccc1O [ROXARSONE] | clear evidence of tubular injury

Same assay, conditions: day 28, kidney histopathology, n=10

Row | Compound | incidence of interstitial inflammation [rats] | proteinaceous casts, tubular cysts and mineralization, animals affected
10 | CCCCCCCCCc1ccc(O)cc1 [4-NONYLPHENOL] | 6 | one
11 | O=[N+]([O-])c1cc([As](=O)(O)O)ccc1O [ROXARSONE] | 6 | one

Same assay, conditions: male Sprague-Dawley rats, daily dose, route and vehicle of Table 2; late-onset renal tubular injury empirically confirmed after 28 days of dosing; expression profile day 5

Row | Compound | Class (nephrotoxic / non-nephrotoxic training label)
12 | GENTAMICIN | Nephrotoxic
13 | CC(=O)[O-].CC(=O)[O-].[Pb+2] [LEAD (II) ACETATE] | Nephrotoxic
14 | O=[N+]([O-])c1cc([As](=O)(O)O)ccc1O [ROXARSONE] | Nephrotoxic
15 | [Cl][Cd][Cl] [CADMIUM CHLORIDE] | Nephrotoxic
16 | [Cl-].[Cl-].[Co+2] [COBALT (II) CHLORIDE] | Nephrotoxic
17 | COc1cccc2c1C(=O)c1c(O)c3c(c(O)c1C2=O)C[C@@](O)(C(C)=O)C[C@@H]3O[C@H]1C[C@H](N)[C@H](O)[C@H](C)O1 [DAUNORUBICIN] | Nephrotoxic
18 | N.N.O=C([O-])C1(C(=O)[O-])CCC1.[Pt+2] [CARBOPLATIN] | Nephrotoxic
19 | COc1cccc2c1C(=O)c1c(O)c3c(c(O)c1C2=O)C[C@@](O)(C(=O)CO)C[C@@H]3O[C@H]1C[C@H](N)[C@H](O)[C@H](C)O1 [DOXORUBICIN] | Nephrotoxic
20 | CCN[C@@H]1C[C@H](N)[C@@H](O[C@H]2OC(CN)=CC[C@H]2N)[C@H](O)[C@H]1O[C@H]1OC[C@](C)(O)[C@H](NC)[C@H]1O [NETILMICIN] | Nephrotoxic
21 | NC[C@H]1O[C@H](O[C@H]2[C@H](O)[C@@H](O[C@H]3O[C@H](CO)[C@@H](O)[C@H](N)[C@H]3O)[C@H](N)C[C@@H]2N)[C@H](N)C[C@@H]1O [TOBRAMYCIN] | Nephrotoxic
22 | CC(=O)[C@]1(O)Cc2c(O)c3c(c(O)c2[C@@H](O[C@H]2C[C@H](N)[C@H](O)[C@H](C)O2)C1)C(=O)c1ccccc1C3=O [IDARUBICIN] | Nephrotoxic
23 | NCC[C@H](O)C(=O)N[C@@H]1C[C@H](N)[C@@H](O[C@H]2O[C@H](CN)[C@@H](O)[C@H](O)[C@H]2O)[C@H](O)[C@H]1O[C@H]1O[C@H](CO)[C@@H](O)[C@H](N)[C@H]1O [AMIKACIN] | Nephrotoxic

Same assay, conditions: rat, in vivo

Row | Compound | Class (nephrotoxic / non-nephrotoxic training label)
24 | CCCCCCCCCc1ccc(O)cc1 [4-NONYLPHENOL] | Nephrotoxic

System: renal tubules
Test: not given
Details: rats, daily dose, route and vehicle of Table 2, day 5/7; absence of nephrotoxicity asserted from PDR and published literature; no histological injury on day 5/7; cited from earlier work

Row | Compound | Class (nephrotoxic / non-nephrotoxic training label)
25 | CN(C)C=O [N,N-DIMETHYLFORMAMIDE] | Non-nephrotoxic
26 | COc1ccc2cc(CC(=O)O)ccc2c1 | Non-nephrotoxic
27 | CO[C@H]1C[C@@H]2CC[C@@H](C)[C@@](O)(O2)C(=O)C(=O)N2CCCC[C@H]2C(=O)O[C@H]([C@H](C)C[C@@H]2CC[C@@H](O)[C@H](OC)C2)CC(=O)[C@H](C)/C=C(\C)[C@@H](O)[C@@H](OC)C(=O)[C@H](C)C[C@H](C)/C=C/C=C/C=C/1C [RAPAMYCIN] | Non-nephrotoxic
28 | CC(C)CN(C[C@@H](O)[C@H](Cc1ccccc1)NC(=O)O[C@H]1CCOC1)S(=O)(=O)c1ccc(N)cc1 | Non-nephrotoxic
29 | CC(C)n1c(/C=C/C(O)CC(O)CC(=O)O)c(-c2ccc(F)cc2)c2ccccc21 (centres unmarked) [FLUVASTATIN] | Non-nephrotoxic
30 | CS(=O)(=O)c1ccc([C@@H](O)[C@@H](CO)NC(=O)C(Cl)Cl)cc1 [THIAMPHENICOL] | Non-nephrotoxic
31 | CC(C)OC(=O)C(C)(C)Oc1ccc(C(=O)c2ccc(Cl)cc2)cc1 [FENOFIBRATE] | Non-nephrotoxic
32 | Cc1oncc1C(=O)Nc1ccc(C(F)(F)F)cc1 [LEFLUNOMIDE] | Non-nephrotoxic
33 | Cc1ccc(C)c(OCCCC(C)(C)C(=O)O)c1 [GEMFIBROZIL] | Non-nephrotoxic
34 | CC[C@H](C)C(=O)O[C@H]1C[C@@H](C)C=C2C=C[C@H](C)[C@H](CC[C@@H]3C[C@@H](O)CC(=O)O3)[C@H]21 [LOVASTATIN] | Non-nephrotoxic
35 | CC(C)(c1ccc(O)cc1)c1ccc(O)cc1 [BISPHENOL A] | Non-nephrotoxic
36 | CCOC(=O)[C@H](CCc1ccccc1)N[C@@H](C)C(=O)N1[C@H](C(=O)O)C[C@@H]2CCC[C@@H]21 | Non-nephrotoxic
37 | CCCC(CCC)C(=O)O [VALPROIC ACID] | Non-nephrotoxic
38 | CCC[C@@H]1C[C@@H](C(=O)N[C@@H]([C@H]2O[C@H](SC)[C@H](O)[C@@H](O)[C@H]2O)[C@@H](C)O)N(C)C1 [LINCOMYCIN] | Non-nephrotoxic
39 | NC(=O)N1C(=O)/C(=C(\O)c2cccs2)c2cc(Cl)ccc21 [TENIDAP] | Non-nephrotoxic
40 | Cn1cnc([N+](=O)[O-])c1Sc1ncnc2nc[nH]c12 [AZATHIOPRINE] | Non-nephrotoxic
41 | C[C@H](CS)C(=O)N1CCC[C@H]1C(=O)O [CAPTOPRIL] | Non-nephrotoxic
42 | CNC[C@H](O)[C@@H](O)[C@H](O)[C@H](O)CO.CNC[C@H](O)[C@@H](O)[C@H](O)[C@H](O)CO.O=C([O-])CN(CCN(CC(=O)[O-])CC(=O)O)CCN(CC(=O)[O-])CC(=O)O.[Gd+3] [GADOPENTETATE DIMEGLUMINE] | Non-nephrotoxic

Row | Compound | Class (nephrotoxic / non-nephrotoxic training label)
43 | CC(C)[C@H](N)C(=O)OCCOCn1cnc2c(=O)[nH]c(N)nc21 [VALACYCLOVIR] | Non-nephrotoxic
44 | CCOc1nc2cccc(C(=O)O)c2n1Cc1ccc(-c2ccccc2-c2nnn[nH]2)cc1 | Non-nephrotoxic
45 | CNCCc1ccccn1 [BETAHISTINE] | Non-nephrotoxic
46 | CCO [ETHANOL] | Non-nephrotoxic
47 | Cc1cc(CC(=O)O)n(C)c1C(=O)c1ccc(Cl)cc1 [ZOMEPIRAC] | Non-nephrotoxic
48 | CCN(CC)N=O [N-NITROSODIETHYLAMINE] | Non-nephrotoxic
49 | CCOC(=O)C(C)(C)Oc1ccc(Cl)cc1 [CLOFIBRATE] | Non-nephrotoxic
50 | Cc1ccc(S(=O)(=O)NC(=O)NN2CC3CCCC3C2)cc1 (centres unmarked) [GLICLAZIDE] | Non-nephrotoxic
51 | Cc1ccc(-c2cc(C(F)(F)F)nn2-c2ccc(S(N)(=O)=O)cc2)cc1 [CELECOXIB] | Non-nephrotoxic
52 | O=C1C(CC[S+]([O-])c2ccccc2)C(=O)N(c2ccccc2)N1c1ccccc1 (centres unmarked) [SULFINPYRAZONE] | Non-nephrotoxic
53 | CO[C@H]1/C=C/O[C@@]2(C)Oc3c(C)c(O)c4c(c3C2=O)C2=NC3(CCN(CC(C)C)CC3)NC2=C(NC(=O)/C(C)=C\C=C\[C@H](C)[C@H](O)[C@@H](C)[C@@H](O)[C@@H](C)[C@H](OC(C)=O)[C@@H]1C)C4=O [RIFABUTIN] | Non-nephrotoxic
54 | CC12CCC(CC1)C(C)(C)O2 [EUCALYPTOL] | Non-nephrotoxic
55 | C[C@H]1O[C@H](O[C@H]2[C@H](O)[C@@H](O)[C@@H](O[C@H]3[C@H](O)[C@@H](O)C(O)O[C@@H]3CO)O[C@@H]2CO)[C@H](O)[C@@H](O)[C@@H]1N[C@H]1C=C(CO)[C@@H](O)[C@H](O)[C@H]1O (some centres unmarked) [ACARBOSE] | Non-nephrotoxic
56 | CC(=O)Oc1ccccc1C(=O)O [ASPIRIN] | Non-nephrotoxic
57 | NCC(=O)O [GLYCINE] | Non-nephrotoxic
58 | N.N.[Cl][Pt+2][Cl] [TRANSPLATIN] | Non-nephrotoxic
59 | Oc1c(Cl)cc(Cl)cc1Sc1cc(Cl)cc(Cl)c1O [BITHIONOL] | Non-nephrotoxic
60 | CC(c1cc2ccccc2s1)N(O)C(N)=O (centres unmarked) [ZILEUTON] | Non-nephrotoxic
